Literature values in patent US8278291B1, “Treatment of wrinkles and strias with 4-hydroxyandrostenedione or a derivative thereof” (Curadis GmbH, priority 1999, dated 2012).

Key:
[1] = target: T1, aromatase (Homo sapiens, UniProt P11511); details: described in the literature
T1 sequence (P11511 1-503): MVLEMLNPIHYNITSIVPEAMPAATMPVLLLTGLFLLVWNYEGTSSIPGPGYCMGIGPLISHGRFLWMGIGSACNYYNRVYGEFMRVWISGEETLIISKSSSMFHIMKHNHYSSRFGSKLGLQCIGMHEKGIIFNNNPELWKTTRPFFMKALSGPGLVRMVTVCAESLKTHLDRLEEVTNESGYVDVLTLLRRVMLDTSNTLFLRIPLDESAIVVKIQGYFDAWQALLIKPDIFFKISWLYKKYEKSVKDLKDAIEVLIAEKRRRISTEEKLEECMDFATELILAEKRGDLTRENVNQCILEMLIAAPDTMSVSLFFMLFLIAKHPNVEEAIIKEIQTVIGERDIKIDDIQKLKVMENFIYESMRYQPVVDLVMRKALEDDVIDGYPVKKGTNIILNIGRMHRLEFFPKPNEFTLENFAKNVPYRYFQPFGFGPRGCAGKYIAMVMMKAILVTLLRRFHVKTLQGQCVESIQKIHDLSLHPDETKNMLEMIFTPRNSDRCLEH

[2] = tested on: 5-alpha-reductase; details: described in the literature, higher concentrations
[3] = applied to the head of monkeys over 27 weeks, versus untreated individuals, Rittmaster 1987
[4] = tested on: sebaceous gland; details: topical, male fuzzy rat, Ye 1997

C[C@]12CCC(=O)C(O)=C1CC[C@@H]1[C@@H]2CC[C@]2(C)C(=O)CC[C@@H]12 [4-hydroxyandrostendione, 4-hydroxyandrost-4-ene-3,17-dione]
critical concentration for aromatase [1]: about 3 nano mole/L | concentration that can also inhibit 5-alpha-reductase [2]: 3 micro mole/L

CCN(CC)C(=O)[C@H]1CC[C@H]2[C@@H]3CC[C@H]4N(C)C(=O)CC[C@]4(C)[C@H]3CC[C@]12C [Example 4-MA, 17-beta-N,N-diethylcarbamoyl-4-methyl-4-aza-5-alpha-androstan-3-one]
signs of boldness [3]: did not have any signs of a boldness

CC(C)(C)NC(=O)[C@H]1CC[C@H]2[C@@H]3CC[C@H]4NC(=O)C=C[C@]4(C)[C@H]3CC[C@]12C [Finasterid, N-tert-butyl-3-oxo-4-aza-5α-androst-1-ene-17-β-carboxamide]
effect in the sebaceous gland model compared with MK 386 [4]: little more effective than MK 386 | effect in the sebaceous gland model compared with RU58841 [4]: much lower effects

CC(C)CCC[C@@H](C)[C@H]1CC[C@H]2[C@@H]3[C@@H](C)C[C@H]4N(C)C(=O)CC[C@]4(C)[C@H]3CC[C@]12C [MK 386, 4,7-beta-dimethyl-4-azacholestane-3-one]
effect in the sebaceous gland model compared with RU58841 [4]: much lower effects
